For 25 compounds, inhibition results are on record in patent US20260272944A1, “PYRIDO[3,4-D]PYRIMIDINONE AND PYRIMDLLNE ARYL HYDROCARBON RECEPTOR ANTAGONISTS AND USES THEREOF” (ALLIANTHERA (SUZHOU) BIOPHARMACEUTICAL CO., LTD., priority 2023, published 2026).

The test deals with T1, Human Aryl Hydrocarbon Receptor (AhR) (Homo sapiens, UniProt P35869).
T1 construct: purchased INDIGO Bioscience IB06001-32; host or cells: AhR Reporter Cell (the kit's proprietary reporter cells)
T1 sequence (P35869 11-848): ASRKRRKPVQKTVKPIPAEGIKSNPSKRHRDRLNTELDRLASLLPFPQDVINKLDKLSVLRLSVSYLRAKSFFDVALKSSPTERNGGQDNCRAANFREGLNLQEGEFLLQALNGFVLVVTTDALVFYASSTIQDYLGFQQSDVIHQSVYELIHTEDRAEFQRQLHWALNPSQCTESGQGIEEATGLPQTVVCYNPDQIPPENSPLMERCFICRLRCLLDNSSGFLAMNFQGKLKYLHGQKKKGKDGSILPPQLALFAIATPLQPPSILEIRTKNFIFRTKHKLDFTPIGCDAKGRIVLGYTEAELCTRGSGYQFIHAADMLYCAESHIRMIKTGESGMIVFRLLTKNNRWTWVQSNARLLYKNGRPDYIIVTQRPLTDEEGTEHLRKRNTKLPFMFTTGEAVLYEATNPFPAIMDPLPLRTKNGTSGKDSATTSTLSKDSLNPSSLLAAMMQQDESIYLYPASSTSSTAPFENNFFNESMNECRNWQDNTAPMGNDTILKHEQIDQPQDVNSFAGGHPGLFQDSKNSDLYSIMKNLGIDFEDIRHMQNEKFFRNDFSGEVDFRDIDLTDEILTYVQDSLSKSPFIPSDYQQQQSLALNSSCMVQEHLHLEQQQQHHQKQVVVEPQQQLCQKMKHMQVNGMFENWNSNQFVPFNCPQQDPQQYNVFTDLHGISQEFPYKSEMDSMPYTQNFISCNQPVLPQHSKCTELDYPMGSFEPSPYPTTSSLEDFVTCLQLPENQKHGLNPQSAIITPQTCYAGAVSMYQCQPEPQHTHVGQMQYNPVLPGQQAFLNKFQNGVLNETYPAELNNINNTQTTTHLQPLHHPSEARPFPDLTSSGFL
The test can be described thus: AhR reporter assay (Human Aryl Hydrocarbon Receptor (AhR) Reporter Assay System, INDIGO Bioscience). It is filed as cell-based. Conditions: AHR inhibition at 10 nM test compound; AhR Reporter Cells activated with 200 μM kynurenic acid, 24 hours; firefly luciferase; normalized by positive and negative controls. The procedure:
The AhR reporter assay was performed following the protocol of the Human Aryl Hydrocarbon Receptor (AhR) Reporter Assay System (INDIGO Bioscience, #IB06001-32). AhR Reporter Cell was thawed and pre-incubated in Cell Recovery Medium (CRM) for 6 hours. The media was then removed and the cells were incubated with Compound Screening Medium (CSM) supplemented with 200 μM kynurenic acid for 24 hours in the absence (negative control) or presence of 10 nM test compounds. For positive inhibition control, cells activated with 200 μM kynurenic acid were incubated in the presence of literature AHR antagonists; alternatively un-activated cells were used as positive inhibition control. Following 24 hours incubation, the media was removed and Luciferase Detection Reagent (LDR) added. The firefly luciferase activity was quantified using a plate reader. Results were normalized by positive and negative controls.
The results of AHR inhibition at 10 nM for compounds as disclosed herein is reported in the below table.
A general note: In a reporter assay the amount or activity of a reporter protein is the signal.

For orientation: inhibition means the drop in the measured response relative to a control, in per cent.

For `C[C@@H]1CN(c2cc(C(=O)N[C@@H](C)CO)nc(-c3cnn(C)c3)n2)CCN1c1ccc(F)cc1` [Compound 73], the inhibition at 0.01 µM was found to be 23%.
For `C[C@@H](CO)NC(=O)c1cc(N2CC3CCC(C2)N3c2ccc(F)cc2)nc(-c2cnn(C)c2)n1` [Compound 74], the inhibition at 0.01 µM came out at 13%.
`C[C@@H](CO)NC(=O)c1cc(N2CCN(C(=O)c3ccc(F)cc3)CC2)nc(-c2cnn(C)c2)n1` [Compound 75]: the inhibition at 0.01 µM stood at 24%.
As to `C[C@@H]1CN(c2ccc(F)cc2)CCN1c1cc(C(=O)N[C@@H](C)CO)nc(-c2cnn(C)c2)n1` [Compound 76], the inhibition at 0.01 µM amounted to 1%.
Turning to `C[C@@H](CO)NC(=O)c1cc(N2CCN(c3ccc(F)cc3)C[C@@H]2C)nc(-c2cnn(C)c2)n1` [Compound 77], the inhibition at 0.01 µM was found to be 4%.
Take `C[C@@H](CO)NC(=O)c1cc(N2Cc3cccc(F)c3C2)nc(-c2cnn(C)c2)n1` [Compound 88]: the inhibition at 0.01 µM came to 21%.
For `C[C@@H](CO)NC(=O)c1cc(-c2ccc(N3CCOCC3)nc2)nc(-c2cnn(C)c2)n1` [Compound 90], the inhibition at 0.01 µM was 1%.
Then `C[C@@H](CO)NC(=O)c1cc(-c2ccc(N3CCN(S(C)(=O)=O)CC3)cc2)nc(-c2cnn(C)c2)n1` [Compound 91], with 7%.
For `C[C@@H](CO)NC(=O)c1cc(N2Cc3ccc(F)cc3C2)nc(-c2cnn(C)c2)n1` [Compound 93], the inhibition at 0.01 µM was 99%.
In the case of `Cc1cc(-c2cc(C(=O)N[C@@H](C)CO)nc(-c3cnn(C)c3)n2)ccc1N1CCOCC1` [Compound 96] it was 10%.
`C[C@@H](CO)NC(=O)c1cc(-c2ccc(NC(=O)CN3CCOCC3)cc2)nc(-c2cnn(C)c2)n1` [Compound 98]: the inhibition at 0.01 µM came to 5%.
Regarding `C[C@@H](CO)NC(=O)c1cc(-c2ccc(C(=O)N3CCC(N)C3)cc2)nc(-c2cnn(C)c2)n1` (stereo partly shown) [Compound 105], the inhibition at 0.01 µM was -3%.
Take `C[C@@H](CO)NC(=O)c1cc(-c2ccc(-c3ccc(=O)n(C)c3)cc2)nc(-c2cnn(C)c2)n1` [Compound 112]: the inhibition at 0.01 µM was 10%.
Turning to `C[C@@H](CO)NC(=O)c1cc(N2Cc3cccnc3C2)nc(-c2cnn(C)c2)n1` [Compound 117], the inhibition at 0.01 µM turned out to be 46%.
As to `C[C@@H](CO)n1cnc2c(-c3cnn(C)c3)nc(-c3ccc(-c4cnc(N)nc4)nc3)cc2c1=O` [Compound 119], the inhibition at 0.01 µM was found to be 2%.
On to `C[C@@H](CO)n1cnc2c(-c3cnn(C)c3)nc(-c3ccc(C(=O)N4CCN(S(C)(=O)=O)CC4)cc3)cc2c1=O` [Compound 120], for which the inhibition at 0.01 µM is -10%.
In the case of `C[C@@H](CO)n1cnc2c(-c3cnn(C)c3)nc(N3CCN(c4ncccn4)CC3)cc2c1=O` [Compound 121] it was 4%; in that of `C[C@@H](CO)n1cnc2c(-c3cnn(C)c3)nc(N3CCN(c4ccc(F)cc4F)CC3)cc2c1=O` [Compound 122], 46%; in that of `C[C@@H](CO)n1cnc2c(-c3cnn(C)c3)nc(N3CCN(c4ccccc4)CC3)cc2c1=O` [Compound 123], 91%.
Turning to `C[C@@H](CO)n1cnc2c(-c3cnn(C)c3)nc(N3Cc4cccnc4C3)cc2c1=O` [Compound 124], the inhibition at 0.01 µM turned out to be 77%.
Then `C[C@H](CO)NC(=O)c1cc(N2Cc3ccccc3C2)nc(-c2cnn(C)c2)n1` [Compound 125], with 23%.
Regarding `C[C@H](NC(=O)c1cc(N2Cc3ccccc3C2)nc(-c2cnn(C)c2)n1)C(=O)O` [Compound 126], the inhibition at 0.01 µM worked out at 5%.
In the case of `C[C@@H](CNS(=O)(=O)C1CC1)NC(=O)c1cc(N2Cc3ccccc3C2)nc(-c2cnn(C)c2)n1` [Compound 127] it was 52%; in that of `C[C@@H](CO)n1cnc2c(-n3nc(N)ccc3=O)nc(-c3cncc(F)c3)cc2c1=O` [Compound 128], 4%; in that of `C[C@@H](CO)n1cnc2c(-n3cncc3C3CC3)nc(-c3cncc(F)c3)cc2c1=O` [Compound 129], 7%.
